Values of other authors, collected in patent US10675364B2, “Rhodol fluorophores for near-infrared imaging” (The Board of Trustees of the Leland Stanford Junior …, priority 2015, dated 2020).

Conditions: highly sensitive to pH in the physiological range

SMILES: O=C1OC2(c3ccc(O)cc3Oc3cc(O)ccc32)c2ccccc21 [fluorescein]
- pKa: 6.3
